The values below come from patent US6294580A, “Substituted 4-hydroxy-phenylalcanoic acid derivatives with agonist activity to PPAR-gamma” (Glaxo Wellcome Inc., priority 1996, dated 2001).

The target of data set [1] is T1, hPPARgamma (Homo sapiens, UniProt P37231).
T1 construct: 10x-histidine tag (N); made in house; host or cells: E. coli
T1 sequence (P37231 195-475 isoform P37231-2): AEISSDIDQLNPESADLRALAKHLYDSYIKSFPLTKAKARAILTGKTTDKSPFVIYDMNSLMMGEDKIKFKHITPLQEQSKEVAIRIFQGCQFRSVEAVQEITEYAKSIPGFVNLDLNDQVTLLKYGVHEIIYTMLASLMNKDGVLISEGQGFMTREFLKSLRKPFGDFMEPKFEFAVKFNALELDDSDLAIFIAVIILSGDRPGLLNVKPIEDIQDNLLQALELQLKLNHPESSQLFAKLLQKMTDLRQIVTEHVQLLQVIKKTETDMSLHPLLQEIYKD
Nature of the data set: hPPARgamma Ligand Binding Assay.
Experimental: 2. hPPARgamma Ligand Binding Assay: The PPAR-gamma ligand binding domain (amino acids 195-475) was expressed with an N-terminal 10×-histidinetag in E. coli cells. The cells were lysed and receptor was purified by means of the epitope tag. The stock solution of protein was diluted to 200 nM in assay buffer (50 mM Tris, 50 mM KCl, pH 8 20 mM CHAPS, 2 mM EDTA 10 mM DTT (Fresh)) just before use.
Test compounds were prepared as 6 mM stock solutions in DMSO. […] The right-most column of wells was used for controls. […] Plates were incubated at room temperature for 2 hrs, and then cooled on ice for 30 minutes. 50 uL samples from each well of a single test plate were simultaneously loaded onto an equilibrated AGTC 96 well gel filtration block (Advanced Genetics Technology Corp.) using a Zymak Rapidplate automated pipettor. The block was placed on top of a clean microtiter plate and centrifuged @1,100×g for 4 min. 200 uL of scintillation fluid was added to each well, the plates were sealed and allowed to equilibrate for at least 4 hours before counting in a Wallac 1250 Microbeta counter.
Ki's were determined from a nonlinear least squares fit of the data to a simple competitive binding model.

Data set [2] deals with PPARg. Nature of the data set: PPARgamma Transient Cotransfection Assay. Format: cell-based. The following applies: CAT reporter; for EC50: read-out: PPARg EC50.
[3] abbreviates: PPARg Ki, competition with [3H]-BRL 49,653, room temperature 2 hrs.

Counter-ions that a name gives are not always drawn. Like-named read-outs stand apart in the source and are kept apart here.

On to `CCCNS(=O)(=O)c1ccc(C(=O)c2ccccc2NC(Cc2ccc(OCCc3nc(-c4ccccc4)oc3C)cc2)C(=O)O)cc1` (stereo not shown) [Example 93, 3-{4-[2-(5-methyl-2-phenyl-oxazol-4-yl)-ethoxy]-phenyl}-2-[2-(4-propylsulfamoyl-benzoyl)-phenylamino]-propionic acid], for which the Ki in data set [1] (setting [3]) was found to be 0.1 µM. Moreover, the 50% effective concentration (EC50) in data set [2] was 0.055 µM.

As to `Cc1oc(-c2ccccc2)nc1CCOc1ccc(CC(Nc2ccccc2C(=O)C2CCCCC2)C(=O)O)cc1` (single isomer, unassigned) [Example 54, 2-(2-Cyclohexanecarbonyl-phenylamino)-3-{4-[2-(5-methyl-2-phenyl-oxazol-4-yl)-ethoxy]-phenyl}-propionic acid], affinity in data set [1] (setting [3]) was put at a Ki of 3 µM. Further, the EC50 in data set [2] turned out to be 0.25 µM.

Consider `O=C(c1ccccc1)c1ccccc1N[C@@H](Cc1ccc(OCCSc2ccc(Cl)cc2)cc1)C(=O)O` [Example 115, 2-(2-Benzoyl-phenylamino)-3-{4-2[-(4-chloro-phenylsulfanyl)ethoxy]-phenyl}-propionic acid], for which, in data set [1] (setting [3]), affinity was put at a Ki of 0.2 µM. Besides, the EC50 in data set [2] worked out at 0.165 µM.

Compound `COC(=O)[C@H](Cc1ccc(OCc2ccccc2)cc1)NC(=O)c1coc2ccccc2c1=O` [Example 10, 3-(4-Benzyloxy-phenyl)-2(S)-[(4-oxo-4H-chromene-3-carbonyl)-amino]-propionic acid methyl ester] returned a Ki in data set [1] (setting [3]) of 0.3 µM. Besides, the EC50 in data set [2] came out at 0.17 µM.

In data set [1] (setting [3]), `COC(=O)Nc1cccc(C(=O)c2ccccc2NC(Cc2ccc(OCCc3nc(-c4ccccc4)oc3C)cc2)C(=O)O)c1` (stereo not shown) [Example 96, 2-[2-(3-methoxycarbonylamino-benzoyl)-phenylamino]-3-{4-[2-(5-methyl-2-phenyl-oxazol-4-yl)-ethoxy]-phenyl}-propionic acid] came in with a Ki of 0.28 µM. Also, in data set [2], the EC50 came to 0.3 µM.

`CN(CCOc1ccc(CC(Cc2ccccc2)C(=O)O)cc1)c1nc2ccccc2o1` (stereo not shown) [Example 26, 3-{4-[2-(Benzoxazol-2-yl-methyl-amino)-ethoxy]-phenyl}-2-benzyl-propionic acid trifluoroacetate] had a Ki in data set [1] (setting [3]) of 1.9 µM. For the same compound, the EC50 in data set [2] was determined as 0.67 µM.

On to `COc1ccccc1C(=O)c1ccccc1NC(Cc1ccc(OCCN(C)c2nc3ccccc3o2)cc1)C(=O)O` (stereo not shown) [Example 79], for which the affinity in data set [1] (setting [3]) corresponds to a Ki of 0.05 µM. Further, the EC50 in data set [2] was 0.03 µM.

Take `COc1cccc(C(=O)c2ccccc2NC(Cc2ccc(OCCN(C)c3nc4ccccc4o3)cc2)C(=O)O)c1` (stereo not shown) [Example 78]: in data set [1] (setting [3]), the Ki is 0.04 µM. For the same compound, the EC50 in data set [2] came out at 0.2 µM.

In data set [1] (setting [3]), `COC(=O)c1ccccc1N[C@@H](Cc1ccc(OCCSc2ccc(Cl)cc2)cc1)C(=O)O` [Example 46, 2-(1-Carboxy-2-{4-[2-(4-clhorophenylsulfanyl)-ethoxy]-phenyl}-ethylamino)-benzoic acid methyl ester] returned a Ki of 0.75 µM. For the same compound, the EC50 in data set [2] stood at 0.9 µM.

For the compound `CN(CCOc1ccc(CC(Nc2ccccc2C(=O)c2cccs2)C(=O)O)cc1)c1nc2ccccc2o1` (stereo not shown) [Example 74], the Ki in data set [1] (setting [3]) stood at 0.8 µM. Moreover, in data set [2], the EC50 amounted to 0.055 µM.

In data set [1] (setting [3]), `O=C(c1ccccc1)c1ccccc1NC(Cc1ccc(OC[C@H]2CCCN2c2nc3ccccc3o2)cc1)C(=O)O` (stereo partly shown) [Example 22] gave a Ki of 0.065 µM. In addition, the EC50 in data set [2] turned out to be 0.02 µM.

In turn, `O=C(c1ccccc1)c1ccccc1NC(Cc1ccc(OCCn2cnc3ccccc32)cc1)C(=O)O` (stereo not shown) [Example 31, 3-[4-(2-Benzoimidazol-1-yl-ethoxy)-phenyl]-2-(2-benzoyl-phenylamino)-propionic acid] showed an inhibitory constant (Ki) in data set [1] (setting [3]) of 0.145 µM. Further, in data set [2], the EC50 is 0.45 µM.

Compound `Cc1oc(-c2ccccc2)nc1CCOc1ccc(CC(Nc2ccccc2C(=O)c2cccc(CN)c2)C(=O)O)cc1` (stereo not shown) [Example 86, 2-[2-(3-aminomethyl-benzoyl)-phenylamino]-3-{4-[2-(5-methyl-2-phenyl-oxazol-4-yl)-ethoxy]-phenyl}-propionic acid hydrochloride] had a Ki in data set [1] (setting [3]) of 0.65 µM. Besides, in data set [2], the EC50 came out at 0.03 µM.

As for `CN(CCOc1ccc(CC(Nc2ccccc2C(=O)c2ccccc2)C(=O)O)cc1)c1nc2ccccc2o1` (stereo not shown) [Example 15, 3-{4-[2-(benzoxazol-2-yl-methyl-amino)-ethoxy]-phenyl}-2-(2-benzoyl-phenylamino)-propionic acid], in data set [1] (setting [3]), the affinity, expressed as Ki, was 0.04 µM. Further, the EC50 in data set [2] is 0.001 µM.

In data set [1] (setting [3]), `O=C(c1ccccc1)c1ccccc1N[C@@H](Cc1ccc(OC[C@@H]2CSCN2c2nc3ccccc3o2)cc1)C(=O)O` [Example 72, 3-[4-(3-Benzoxazol-2-yl-thiazolidin-4(R)-ylmethoxy)-phenyl]-2(S)-(2-benzoyl-phenylamino)-propionic acid] came in with a Ki of 0.03 µM. Also, the EC50 in data set [2] came out at 0.005 µM.

Consider `CN(CCOc1ccc(CC(Cc2ccccc2Br)C(=O)O)cc1)c1nc2ccccc2o1` (stereo not shown) [Example 27, 3-{4-[2-(Benzoxazol-2-yl-methyl-amino)-ethoxy]-phenyl}-2-(2-bromo-benzyl)-propionic acid trifluoroacetate], for which affinity in data set [1] (setting [3]) was put at a Ki of 0.3 µM. For the same compound, the EC50 in data set [2] was 0.4 µM.

As to `COc1ccc(C(=O)c2ccccc2NC(Cc2ccc(OCCN(C)c3nc4ccccc4o3)cc2)C(=O)O)cc1` (stereo not shown) [Example 110, 3-{4-[2-(Benzoxazol-2-yl-methylamino)-ethoxy]-phenyl}-2-(2-(4-methoxy-benzoyl)-phenylamino)-propionic acid], the Ki in data set [1] (setting [3]) came out at 0.05 µM. The EC50 in data set [2] stood at 0.065 µM.

Turning to `Cc1ccc(C(=O)c2ccccc2NC(Cc2ccc(OCCN(C)c3nc4ccccc4o3)cc2)C(=O)O)cc1` (stereo not shown) [Example 111, 3-{4-[2-(Benzoxazol-2-yl-methylamino)-ethoxy]-phenyl}-2-(2-(4-methyl-benzoyl)-phenylamino)-propionic acid], affinity in data set [1] (setting [3]) was put at a Ki of 0.07 µM. In addition, in data set [2], the EC50 amounted to 0.01 µM.

Turning to `CN(CCOc1ccc(CC(Nc2ccccc2C(=O)C2CCCC2)C(=O)O)cc1)c1nc2ccccc2o1` (stereo not shown) [Example 48, 3-{4-[2-(Benzoxazol-2-yl-methyl-amino)-ethoxy]-phenyl}-2-(2-cyclopentanecarbonyl-phenylamino)-propionic acid], the Ki in data set [1] (setting [3]) came to 0.115 µM. In data set [2], the EC50 stood at 0.02 µM.

In turn, `Cc1oc(-c2ccccc2)nc1CCOc1ccc(CC(Nc2ccccc2C(=O)C2CCCCC2)C(=O)O)cc1` (single isomer, unassigned) [Example 53, 2-(2-Cyclohexanecarbonyl-phenylamino)-3-{4-[2-(5-methyl-2-phenyl-oxazol-4-yl)-ethoxy]-phenyl}-propionic acid] came in with a Ki in data set [1] (setting [3]) of 0.07 µM. In addition, the EC50 in data set [2] worked out at 0.025 µM.

On to `COC(=O)c1ccccc1N[C@@H](Cc1ccc(OCCc2nc(N3CCN(C)CC3)sc2C)cc1)C(=O)O` [Example 105], for which the Ki in data set [1] (read-out: PPARg Ki; competition with [3H]-BRL 49,653, room temperature 2 hrs) was 0.14 µM. The EC50 in data set [2] was determined as 0.035 µM.

Consider `O=C(c1ccccc1)c1ccccc1NC(Cc1ccc(OCc2ccccc2)cc1)C(=O)O` (stereo not shown) [Example 4, 2-(2-benzoylphenylamino)-3-(4-benzyloxyphenyl) propanoic acid], for which the affinity in data set [1] (setting [3]) corresponds to a Ki of 1 µM. In addition, in data set [2], the “PPARg Fold. Act.” value is given as 20 and the EC50 came to 3 µM.

Regarding `CN(CCOc1ccc(CC(Nc2ccccc2C(=O)c2ccsc2)C(=O)O)cc1)c1nc2ccccc2o1` (stereo not shown) [Example 75], the Ki in data set [1] (setting [3]) amounted to 0.075 µM. The EC50 in data set [2] came out at 0.1 µM.

Regarding `Cc1cc(-c2ccco2)nn1CCOc1ccc(C[C@H](Nc2ccccc2C(=O)c2ccccc2)C(=O)O)cc1` [Example 63, 2S-(2-benzoyl-phenylamino)-3-{4-[2-(3-furan-2-yl-5-methyl-pyrazol-1-yl)-ethoxy]-phenyl}-propionic acid], affinity in data set [1] (setting [3]) was put at a Ki of 0.03 µM. Further, the EC50 in data set [2] turned out to be 0.02 µM.

For the compound “2-(2-Benzoyl-phenylamino)-3-(4-{2-[3-(5-methyl-pyridin-2-yl)-propoxy]-ethoxyl}-phenyl)-propionic acid [Example 122]”, the Ki in data set [1] (competition with [3H]-BRL 49,653, room temperature 2 hrs; read-out: PPARg Ki) turned out to be 0.625 µM. Further, in data set [2], the EC50 came out at 0.5 µM.

In turn, `CN(CCOc1ccc(CC(Nc2ccccc2C(=O)C2CCCCCC2)C(=O)O)cc1)c1nc2ccccc2o1` (stereo not shown) [Example 49, 3-{4-[2-(Benzoxazol-2-yl-methyl-amino)-ethoxy]-phenyl}-2-(2-cycloheptanecarbonyl-phenylamino)-propionic acid] registered a Ki in data set [1] (setting [3]) of 0.08 µM. In addition, in data set [2], the EC50 is 0.01 µM.

In data set [1] (setting [3]), `Cc1cccc(C)c1C(=O)c1ccccc1NC(Cc1ccc(OCCN(C)c2nc3ccccc3o2)cc1)C(=O)O` (stereo not shown) [Example 83] gave a Ki of 0.35 µM. Moreover, the half-maximal effective concentration (EC50) in data set [2] came out at 0.165 µM.

For `Cc1oc(-c2ccccc2)nc1CCOc1ccc(CC(Nc2ccccc2C(=O)c2ccc(CN)cc2)C(=O)O)cc1` (stereo not shown) [Example 82, 2-[2-(4-aminomethyl-benzoyl)-phenylamino]-3-{4-[2-(6-methyl-2-phenyl-oxazol-4-yl)-ethoxy]-phenyl}-propionic acid hydrochloride], the Ki in data set [1] (setting [3]) is 0.065 µM. Moreover, in data set [2], the EC50 was found to be 0.025 µM.

In data set [1] (setting [3]), `O=C(c1ccccc1)c1ccccc1NC(Cc1ccc(OCc2csc(-c3ccc(Cl)cc3)n2)cc1)C(=O)O` (stereo not shown) [Example 30, 2-(2-Benzoyl-phenylamino)-3-{4-[2-(4-chlorophenyl)-thiazol-4ylmethoxy]-phenyl}-propionic acid] had a Ki of 0.3 µM. Besides, the EC50 in data set [2] was determined as 0.05 µM.

In the case of `CN(CCOc1ccc(CC(Nc2sccc2C(=O)c2ccccc2)C(=O)O)cc1)c1nc2ccccc2o1` (stereo not shown) [Example 52, 3-{4-[2-(Benzoxazol-2-yl-methyl-amino)-ethoxy]-phenyl}-2-(3-benzoyl-thiophene-2-ylamino)-propionic acid], the Ki in data set [1] (setting [3]) was determined as 0.1 µM. The EC50 in data set [2] was 0.08 µM.
